# Experimental data: patent US10206937B2, “Boronic acid derivatives and therapeutic uses thereof” (Qpex Biopharma, Inc., priority 2014, dated 2019)
# Tested on: strains of Enterobacteriaceae producing various carbapenemases (class A, D and B; 104 strains)
# Test: Antibiotics potentiation by Compound 27 (MIC; meropenem, doripenem, ertapenem, cefepime)
# Assay type: cell-based
# Conditions: + 27 = with Compound 27 at fixed 4 μg/ml
smiles,measurement,setting,value
COc1ccc2c(c1C(=O)O)OB(O)C(Sc1nnc(N)s1)C2 (centres unmarked) [D + 27],MIC,strain CF1012 Citrobacter freundii (KPC-2),X (MIC of less than 1 μg/mL)
same,MIC,strain CF1021 Citrobacter freundii (CMY-type; VIM-1),X (MIC of less than 1 μg/mL)
same,MIC,"strain CF1022 Citrobacter freundii (SHV-12(2be), TEM-OSBL(2b); IMP-8)",X (MIC of less than 1 μg/mL)
same,MIC,"strain CF1023 Citrobacter freundii (SHV-12(2be), TEM-OSBL(2b); CTX-M-3; CMY-34; NDM-1)",X (MIC of less than 1 μg/mL)
same,MIC,strain CL1080 Enterobacter cloacae (IMP-1),X (MIC of less than 1 μg/mL)
same,MIC,"strain EA1019 Enterobacter aerogenes (SHV-5, VIM-1)",X (MIC of less than 1 μg/mL)
same,MIC,strain EC1007 Escherichia coli (KPC-3),X (MIC of less than 1 μg/mL)
same,MIC,"strain EC1061 Escherichia coli (NDM-1, CMY-6)",X (MIC of less than 1 μg/mL)
same,MIC,"strain EC1062 Escherichia coli (OXA-48, CTX-M-15)",X (MIC of less than 1 μg/mL)
same,MIC,"strain EC1064 Escherichia coli (NDM-1, CMY-6, CTX-M-15)",Y (MIC of 1 μg/mL to 10 μg/mL)
same,MIC,strain EC1065 Escherichia coli (IMP-1),X (MIC of less than 1 μg/mL)
same,MIC,strain EC1068 Escherichia coli (VIM-1),X (MIC of less than 1 μg/mL)
same,MIC,strain EC1069 Escherichia coli (CTX-M-27; NDM-1),X (MIC of less than 1 μg/mL)
same,MIC,strain EC1070 Escherichia coli (TEM-OSBL(2b); CMY-42; NDM-5),X (MIC of less than 1 μg/mL)
same,MIC,strain EC1072 Escherichia coli (CTX-M-3; NDM-1),X (MIC of less than 1 μg/mL)
same,MIC,strain ECL1004 Enterobacter cloacae (NMC-A),X (MIC of less than 1 μg/mL)
same,MIC,"strain ECL1026 Enterobacter cloacae (KPC-2, TEM-1)",X (MIC of less than 1 μg/mL)
same,MIC,"strain ECL1036 Enterobacter cloacae (KPC-3, TEM-1)",X (MIC of less than 1 μg/mL)
same,MIC,strain ECL1045 Enterobacter cloacae (VIM-1),Y (MIC of 1 μg/mL to 10 μg/mL)
same,MIC,"strain ECL1055 Enterobacter cloacae (KPC-3, TEM)",X (MIC of less than 1 μg/mL)
same,MIC,"strain ECL1057 Enterobacter cloacae (NDM-1, TEM-1, CTX-M-15)",Z (MIC of greater than 10 μg/mL)
same,MIC,"strain ECL1058 Enterobacter cloacae (KPC-3, SHV-11, TEM-1)",X (MIC of less than 1 μg/mL)
same,MIC,"strain ECL1059 Enterobacter cloacae (KPC-3, SHV-12, TEM-1)",X (MIC of less than 1 μg/mL)
same,MIC,"strain ECL1061 Enterobacter cloacae (KPC-3, Hyper AmpC expression)",X (MIC of less than 1 μg/mL)
same,MIC,strain ECL1082 Enterobacter cloacae (VIM-1),X (MIC of less than 1 μg/mL)
same,MIC,strain ECL1084 Enterobacter cloacae (CTX-M-15; ACT-16; NDM-1),X (MIC of less than 1 μg/mL)
same,MIC,"strain ECL1085 Enterobacter cloacae (SHV-31(2be), TEM-1(2b); CTX-M-15; NDM-1)",X (MIC of less than 1 μg/mL)
same,MIC,"strain ECL1086 Enterobacter cloacae (VIM-31, OXA-48(c))",X (MIC of less than 1 μg/mL)
same,MIC,strain ECL1087 Enterobacter cloacae (VIM-1),X (MIC of less than 1 μg/mL)
same,MIC,strain ECL1088 Enterobacter cloacae (TEM-1(2b); CTX-M-14; ACT-type; VIM-1),X (MIC of less than 1 μg/mL)
same,MIC,strain ECL1089 Enterobacter cloacae (ACT-type; IMP-1),Y (MIC of 1 μg/mL to 10 μg/mL)
same,MIC,strain ECL1090 Enterobacter cloacae (TEM-1(2b); CTX-M-22; ACT-type; IMP-8),X (MIC of less than 1 μg/mL)
same,MIC,strain ECL1091 Enterobacter cloacae (VIM-1),Y (MIC of 1 μg/mL to 10 μg/mL)
same,MIC,strain ECL1092 Enterobacter cloacae (TEM-OSBL(2b); ACT-32; VIM-1),X (MIC of less than 1 μg/mL)
same,MIC,strain ECL1093 Enterobacter cloacae (TEM-OSBL(2b); ACT-32; VIM-1),X (MIC of less than 1 μg/mL)
same,MIC,strain ECL1094 Enterobacter cloacae (VIM-1),X (MIC of less than 1 μg/mL)
same,MIC,"strain ECL1096 Enterobacter cloacae (CMY-4, VIM-4, OXA-48(c))",X (MIC of less than 1 μg/mL)
same,MIC,"strain ECL1097 Enterobacter cloacae (SHV-31(2be), TEM-OSBL(2b); CTX-M-15; ACT-31; NDM-1)",X (MIC of less than 1 μg/mL)
same,MIC,strain ECL1098 Enterobacter cloacae (TEM-OSBL(2b); DHA-1; ACT-16; NDM-1),X (MIC of less than 1 μg/mL)
same,MIC,strain KP1001 Klebsiella pneumoniae (KPC TEM SHV),Y (MIC of 1 μg/mL to 10 μg/mL)
same,MIC,strain KP1002 Klebsiella pneumoniae (KPC TEM SHV),X (MIC of less than 1 μg/mL)
same,MIC,strain KP1003 Klebsiella pneumoniae (KPC TEM SHV),X (MIC of less than 1 μg/mL)
same,MIC,"strain KP1004 Klebsiella pneumoniae (KPC-2, TEM-1, SHV-11)",X (MIC of less than 1 μg/mL)
same,MIC,strain KP1008 Klebsiella pneumoniae (KPC-2),X (MIC of less than 1 μg/mL)
same,MIC,"strain KP1014 Klebsiella pneumoniae (VIM-1, TEM, SHV)",Y (MIC of 1 μg/mL to 10 μg/mL)
same,MIC,"strain KP1054 Klebsiella pneumoniae (VIM-1, SHV-11)",X (MIC of less than 1 μg/mL)
same,MIC,"strain KP1059 Klebsiella pneumoniae (VIM-1, SHV-11)",Y (MIC of 1 μg/mL to 10 μg/mL)
same,MIC,"strain KP1061 Klebsiella pneumoniae (KPC-3, SHV-11, TEM-1)",X (MIC of less than 1 μg/mL)
same,MIC,"strain KP1064 Klebsiella pneumoniae (KPC-2, SHV-11, TEM-1)",Y (MIC of 1 μg/mL to 10 μg/mL)
same,MIC,"strain KP1065 Klebsiella pneumoniae (VIM-1, SHV-11)",X (MIC of less than 1 μg/mL)
same,MIC,"strain KP1070 Klebsiella pneumoniae (KPC-2, SHV-11, TEM-1)",X (MIC of less than 1 μg/mL)
same,MIC,"strain KP1074 Klebsiella pneumoniae (KPC-3, SHV-11, TEM)",Y (MIC of 1 μg/mL to 10 μg/mL)
same,MIC,"strain KP1081 Klebsiella pneumoniae (NDM-1, TEM-1, SHV-11, CMY-6, CTX-M-15)",X (MIC of less than 1 μg/mL)
same,MIC,"strain KP1082 Klebsiella pneumoniae (KPC-2, SHV-1)",X (MIC of less than 1 μg/mL)
same,MIC,"strain KP1083 Klebsiella pneumoniae (KPC-3, SHV-1, TEM-1)",X (MIC of less than 1 μg/mL)
same,MIC,"strain KP1084 Klebsiella pneumoniae (KPC-3, SHV-11, TEM-1)",Y (MIC of 1 μg/mL to 10 μg/mL)
same,MIC,"strain KP1086 Klebsiella pneumoniae (OXA-48, CTX-M-15, TEM, SHV)",Y (MIC of 1 μg/mL to 10 μg/mL)
same,MIC,"strain KP1087 Klebsiella pneumoniae (KPC-2, CTX-M-15, SHV-11, TEM-1)",Y (MIC of 1 μg/mL to 10 μg/mL)
same,MIC,"strain KP1088 Klebsiella pneumoniae (KPC-3, SHV-11, TEM-1)",X (MIC of less than 1 μg/mL)
same,MIC,"strain KP1089 Klebsiella pneumonias (OXA-181, CTX-M-15, TEM, SHV)",X (MIC of less than 1 μg/mL)
same,MIC,strain KP1095 Klebsiella pneumoniae (KPC-2 TEM-1 SHV-1),X (MIC of less than 1 μg/mL)
same,MIC,strain KP1096 Klebsiella pneumoniae (KPC-2 TEM-181 SHV-11),X (MIC of less than 1 μg/mL)
same,MIC,strain KP1097 Klebsiella pneumonias (IMP-1),X (MIC of less than 1 μg/mL)
same,MIC,strain KP1098 Klebsiella pneumoniae (IMP-26),Y (MIC of 1 μg/mL to 10 μg/mL)
same,MIC,strain KP1104 Klebsiella pneumoniae (KPC TEM),X (MIC of less than 1 μg/mL)
same,MIC,strain KP1105 Klebsiella pneumoniae (KPC TEM SHV),X (MIC of less than 1 μg/mL)
same,MIC,strain KP1159 Klebsiella pneumoniae (SHV-1(2b); CTX-M-15; IMP-4),X (MIC of less than 1 μg/mL)
same,MIC,strain KP1160 Klebsiella pneumoniae (SHV-28(2be); CTX-M-15; IMP-26),X (MIC of less than 1 μg/mL)
same,MIC,strain KP1161 Klebsiella pneumoniae (NDM-1),X (MIC of less than 1 μg/mL)
same,MIC,strain KP1164 Klebsiella pneumoniae (SHV-12(2be); VIM-1),X (MIC of less than 1 μg/mL)
same,MIC,strain KP1165 Klebsiella pneumoniae (SHV-11(2b); CTX-M-15; VIM-27),Z (MIC of greater than 10 μg/mL)
same,MIC,strain KP1166 Klebsiella pneumoniae (SHV-5(2be); VIM-26),Y (MIC of 1 μg/mL to 10 μg/mL)
same,MIC,strain KP1167 Klebsiella pneumoniae (SHV-12(2be); VIM-1),X (MIC of less than 1 μg/mL)
same,MIC,strain KP1169 Klebsiella pneumoniae (SHV-11(2b); VIM-1),X (MIC of less than 1 μg/mL)
same,MIC,strain KP1170 Klebsiella pneumoniae (SHV-11(2b); CTX-M-15; NDM-1),X (MIC of less than 1 μg/mL)
same,MIC,strain KP1172 Klebsiella pneumoniae (SHV-31(2be); DHA-1; VIM-1),X (MIC of less than 1 μg/mL)
same,MIC,strain KP1173 Klebsiella pneumoniae (TEM-33(2br); CTX-M-15; IMP-1),X (MIC of less than 1 μg/mL)
same,MIC,strain KP1174 Klebsiella pneumoniae (CTX-M-14; IMP-1),X (MIC of less than 1 μg/mL)
same,MIC,strain KP1175 Klebsiella pneumoniae (SHV-OSBL(2b); VIM-1),X (MIC of less than 1 μg/mL)
same,MIC,"strain KP1177 Klebsiella pneumoniae (SHV-OSBL(2b), TEM-OSBL(2b); CTX-M-15; NDM-1)",X (MIC of less than 1 μg/mL)
same,MIC,strain KP1178 Klebsiella pneumoniae (SHV-OSBL(2b;) TEM-OSBL(2b); CTX-M-15; NDM-1),X (MIC of less than 1 μg/mL)
same,MIC,"strain KP1179 Klebsiella pneumoniae (SHV-12(2be), TEM-OSBL(2b); CTX-M-15; NDM-7)",X (MIC of less than 1 μg/mL)
same,MIC,"strain KP1180 Klebsiella pneumoniae (SHV-OSBL(2b), TEM-OSBL(2b); CTX-M-15; DHA-1; IMP-26)",X (MIC of less than 1 μg/mL)
same,MIC,strain KP1181 Klebsiella pneumoniae (SHV-OSBL(2b); CTX-M-15; IMP-26),X (MIC of less than 1 μg/mL)
same,MIC,"strain KP1183 Klebsiella pneumoniae (SHV-OSBL(2b), TEM-OSBL(2b); CTX-M-15; NDM-1)",X (MIC of less than 1 μg/mL)
same,MIC,strain KP1184 Klebsiella pneumoniae (SHV-OSBL(2b); IMP-1),X (MIC of less than 1 μg/mL)
same,MIC,"strain KP1185 Klebsiella pneumoniae (SHV-OSBL(2b), TEM-OSBL(2b); IMP-4)",X (MIC of less than 1 μg/mL)
same,MIC,strain KP1186 Klebsiella pneumoniae (CTX-M-15; NDM-1),X (MIC of less than 1 μg/mL)
same,MIC,"strain KP1187 Klebsiella pneumoniae (SHV-55(2be), TEM-OSBL(2b); CTX-M-15; NDM-1)",X (MIC of less than 1 μg/mL)
same,MIC,strain KP1188 Klebsiella pneumoniae (SHV-OSBL(2b); CTX-M-15; NDM-1),Y (MIC of 1 μg/mL to 10 μg/mL)
same,MIC,strain KP1189 Klebsiella pneumoniae (TEM-OSBL(2b); CTX-M-15; CTX-M-27; NDM-1),X (MIC of less than 1 μg/mL)
same,MIC,strain KPM1123 Klebsiella pneumoniae (KPC-2 TEM SHV),X (MIC of less than 1 μg/mL)
same,MIC,strain KPM1202 Klebsiella pneumoniae (KPC SHV TEM),X (MIC of less than 1 μg/mL)
same,MIC,strain KPM1203 Klebsiella pneumoniae (KPC SHV TEM),X (MIC of less than 1 μg/mL)
same,MIC,strain KPM1344 Klebsiella pneumoniae (VIM-1),X (MIC of less than 1 μg/mL)
same,MIC,strain KPM1345 Klebsiella pneumoniae (VIM-1 SHV),X (MIC of less than 1 μg/mL)
same,MIC,strain KPM1347 Klebsiella pneumoniae (NDM-1 SHV CTX-M-15),X (MIC of less than 1 μg/mL)
same,MIC,"strain KX1017 Klebsiella oxytoca (KPC-2, OXA-2, SHV-30)",X (MIC of less than 1 μg/mL)
same,MIC,"strain KX1018 Klebsiella oxytoca (KPC-2, SHV-40, OXY-1)",X (MIC of less than 1 μg/mL)
same,MIC,"strain KX1019 Klebsiella oxytoca (KPC-2, OXA-2)",X (MIC of less than 1 μg/mL)
same,MIC,strain PM1024 Proteus mirabilis (TEM-1(2b); CMY-16; VIM-1),X (MIC of less than 1 μg/mL)
same,MIC,strain PM1026 Proteus mirabilis (DHA-1; IMP-26),Y (MIC of 1 μg/mL to 10 μg/mL)
same,MIC,strain PM1027 Proteus mirabilis (VIM-5),X (MIC of less than 1 μg/mL)
same,MIC,strain SM1023 Serratia marcescens (VIM-4),Y (MIC of 1 μg/mL to 10 μg/mL)
